Reference: patent US7482345B2, “P38 kinase inhibiting agents” (priority 2005, dated 2009)

target: T1, Murine p38 (Mus musculus, UniProt P47811); assay: p38 kinase assay; assay type: biochemical; conditions: illustrative Examples; table does not say which of 'the above assays'
T1 construct: made in house; host or cells: Drosophila S2 cells (p38); E. coli (GST-ATF2)
Description: Murine p38 containing the FLAG epitope tag was expressed in Drosophila S2 cells under transcriptional control of a copper-inducible metallothionein promoter. Expression of recombinant p38 was induced by treating transfected cells with 1 mM CuSO4 for 4 hours. To generate active recombinant murine p38, CuSO4-treated S2 cells were stimulated 10 minutes prior to harvest with 400 mM NaCl, 2 mM Na3VO4, and 100 μg/L okadaic acid. Cell pellets were washed with phosphate-buffered saline, 2 mM Na3VO4, and lysed in 20 mM Tris HCl, pH 7.5, 120 mM NaCl, 1% Triton X-100, 2 mM EDTA, 20 mM NaF, 4 mM Na3VO4, 2 mM Prefabloc SC (Boehringer Mannheim). Cell lysates were centrifuged for 10 min at 13,000×g, and activated, recombinant murine p38 was immunoaffinity purified from the lysate by column chromatography through anti-FLAG M2 resin (Kodak) that had been equilibrated with lysis buffer. After loading the extract the resin was washed with 10 column volumes of lysis buffer, 10 column volumes buffer A (10 mM Tris HCl, pH 7.5, 500 mM NaCl, 20% glycerol) and 10 column volumes of buffer B (10 mM Tris HCl pH 7.5, 150 mM NaCl, 20% glycerol). The fusion protein was eluted in buffer B containing 100 μg/mL FLAG peptide (Kodak).
The N-terminal 115 amino acids of ATF-2 was expressed in E. coli as a fusion protein with glutathione-S-transferase. The fusion protein was purified over glutathione agarose according to standard procedures (Pharmacia).
p38 kinase assays were performed in a reaction volume of 100 μL in a 96-well plate, at 30° for […] under the following conditions: 25 mM Hepes, pH 7.4, 10 mMmgCl2, 20 mM β-glycerolphosphate, 2 mM DTT, 5 μM ATP, 10 μCi [γ-33P]-ATP and ˜2 μM GST-ATF2. Serial dilutions of compounds were added to each reaction in 2 μL DMSO. 2 μL of DMSO was added to the last row of each reaction plate as the no inhibitor control for each inhibitor titration. The reaction was terminated with an equal volume of a stop solution containing 100 mM EDTA and 15 mM sodium pyrophosphate. PVDF filter plates (MAIPNOB50, Millipore) were pre-wet with methanol and washed with the stop solution. 50 μL aliquots from a single reaction were applied to the filter under vacuum, and the filter was washed twice with 75 mM phosphoric acid. The filter plates were counted in a scintillation counter (Top Count, Packard) and the percent inhibition at each compound concentration is determined.

T1 sequence (P47811 whole entry): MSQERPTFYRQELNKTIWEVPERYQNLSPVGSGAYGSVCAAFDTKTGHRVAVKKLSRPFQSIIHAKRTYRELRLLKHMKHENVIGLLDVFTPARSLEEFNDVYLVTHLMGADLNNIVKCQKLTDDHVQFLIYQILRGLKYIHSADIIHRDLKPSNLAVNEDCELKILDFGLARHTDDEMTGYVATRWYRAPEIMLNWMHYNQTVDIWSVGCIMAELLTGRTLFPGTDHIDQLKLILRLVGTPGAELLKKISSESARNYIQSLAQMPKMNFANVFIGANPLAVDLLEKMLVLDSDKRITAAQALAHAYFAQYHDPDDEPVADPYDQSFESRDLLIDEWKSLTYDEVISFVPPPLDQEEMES

IC50 [nM] | SMILES
22 | COc1ccc(C(=O)N2CCCC2)cc1-c1c(=O)ccn2nc(Oc3ccc(F)cc3F)ccc12 [Example 4, 2-(2,4-difluorophenoxy)-5-[2-methoxy-5-(pyrrolidin-1-ylcarbonyl)phenyl]-6H-pyrido[1,2-b]pyridazin-6-one]
59 | CCc1ccc(C(=O)N2CCCC2)cc1-c1c(=O)ccn2nc(Oc3ccc(F)cc3F)ccc12 [Example 14, 2-(2,4-difluorophenoxy)-5-[2-ethyl-5-(pyrrolidin-1-ylcarbonyl)phenyl]-6H-pyrido[1,2-b]pyridazin-6-one]
710 | O=c1ccn2nc(NCc3ccc(F)cc3F)ccc2c1-c1c(F)cccc1F [Example 49]
320 | O=c1ccn2cc(Sc3ccc(F)cc3F)ccc2c1-c1c(F)cccc1F [Example 52, 1-(2,6-difluorophenyl)-7-[(2,4-difluorophenyl)thio]-2H-quinolizin-2-one]
93 | O=c1ccn2cc(Cc3ccc(F)cc3F)ccc2c1-c1c(F)cccc1F [Example 53, 7-(2,4-difluorobenzyl)-1-(2,6-difluorophenyl)-2H-quinolizin-2-one]
